“Also recorded” adds a separate entry of the source. Each block holds one molecule with its values, some of them ahead of it. Bridge positions count the residues as written; N and C are the ends. Ends that are not written are not given here.
Assays:
IL-23R deletion proteins [1] = target: T1, IL-23R deletion proteins (Homo sapiens, UniProt Q5VWK5); test: Immunoprecipitation with FLAG-tagged IL-23R deletion proteins; type: binding; conditions: 200 ng, anti-FLAG M2 immunoprecipitation, Western blot
T1 construct: made in house; host or cells: 293T cells (culture media)
T1 sequence (Q5VWK5 24-200): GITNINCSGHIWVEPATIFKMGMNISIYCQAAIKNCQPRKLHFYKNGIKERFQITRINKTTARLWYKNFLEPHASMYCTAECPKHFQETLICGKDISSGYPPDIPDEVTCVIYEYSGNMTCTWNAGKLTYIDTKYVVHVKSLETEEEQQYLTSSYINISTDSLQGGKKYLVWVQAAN
Procedure: (§1) In this study, we examined which regions of IL-23R proteins were required for the binding to IL-23 and polypeptide no. 23.15-fc fusion protein. To do so, we generated a series of IL-23R deletion proteins as illustrated in the FIG. 48.
(§2) Culture media from 293T cells transfected with different FLAG-tagged IL-23R deletion constructs were incubated with 200 ng of either IL-23 or polypeptide no. 23.15-fc fusion protein, then immunoprecipitated with anti-FLAG M2 affinity gel. The immunoprecipitate was subjected to Western blotting and polypeptide no. 23.15-Fc fusion protein or IL-23 was visualized with either anti-mouse IgG or anti-hIL-12/23p40 respectively. IL-23 or polypeptide no. […] 23.15-fc fusion protein (FIG. 48).

IL-23R deletion proteins [2] = test: as above; type: binding; conditions: 200 ng, anti-FLAG M2 immunoprecipitation, Western blot
Procedure: as §1, §2

[3] = target: T2, IL-23R pathway in STAT3-Luc reporter DB cells (Homo sapiens, UniProt Q5VWK5); test: STAT3-Luc reporter DB cells stimulated with IL-23 cytokines; type: cell-based
Procedure: In Example 29 (above), we detailed the development of stably transfected STAT3-Luc reporter clone. […] The stably transfected STAT3-Luc reporter DB cells (0.5×10^6 cells) were cultured in 100 μl of RPMI+10% FBS. Recombinant IL-23 (Humanzyme) or isolated IL-23 (WT or W5) was added to the cells and incubated at 37° C. for 4 hours. Luciferase activity was measured using Dual-Glo luciferase assay system (Promega).
The reporter luciferase activity increased by approximately 10 folds. Isolated WT IL-23 cytokine at different concentrations (50,000, 5,000, 500 and 50 ng/ml) was added to stimulate these stable cells. […] At the concentration of 50 ng/ml, the isolated WT IL-23 cytokine stimulates the IL-23R pathway as good as the recombinant IL-23 cytokine from Humazyme.

[4] = target: T3, Recombinant human IL-23R-Fc (Homo sapiens, UniProt Q5VWK5); test: Competitive ELISA, IL-23 binding to IL-23R; conditions: for inhibition of IL-23 binding to its receptor by modified polypeptides, Competitive ELISA: procedure of Example 6, compared with parent polypeptide; for IC50: human IL-23 / IL-23R-Fc, read-out: IC50, Competitive ELISA
T3 construct: has the protein portion between the 24 amino acid residue to 353 amino acid residue; purchased R&D Systems 1400-IR-050
T3 sequence (Q5VWK5 24-353): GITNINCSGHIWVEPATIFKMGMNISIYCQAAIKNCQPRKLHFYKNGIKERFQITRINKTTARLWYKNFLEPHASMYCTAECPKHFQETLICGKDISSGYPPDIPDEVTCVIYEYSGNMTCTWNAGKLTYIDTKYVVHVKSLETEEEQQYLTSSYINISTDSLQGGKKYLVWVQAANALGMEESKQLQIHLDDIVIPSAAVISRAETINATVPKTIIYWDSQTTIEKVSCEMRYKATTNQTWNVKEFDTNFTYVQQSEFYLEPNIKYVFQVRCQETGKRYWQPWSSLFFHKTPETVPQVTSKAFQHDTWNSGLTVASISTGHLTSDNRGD
Procedure: The novel polypeptides were tested for their ability to inhibit IL-23 using a Competitive ELISA. In such an assay, IL-23R/Fc fusion protein was immobilized on a solid support. In this instance, the solid support was a 96-well plate, but the support may be any support that is typically used for an ELISA. The novel polypeptide and IL-23 were allowed to compete for binding to the immobilized IL-23R/Fc fusion protein. IL-23 that bound to IL-23R-Fc was detected using biotinylated anti-p40 antibody. The bound anti-p40 antibody was detected using streptavidin-horseradish peroxidase (HRP) and a tetramethylbenzidine (TMB) substrate was added to measure peroxidase activity. The color was measured at optical density (OD) 450nm. The color intensity was directly proportional to the amount of the bound IL-23 protein. […] (See, FIG. 16.)
(§3) FIG. 12 is a schematic depiction of the Competitive ELISA. Recombinant human IL-23R-Fc (2 μg/ml) was coated onto microtiter plates as a capture reagent. IL-23 and polypeptides were added to compete for binding to the immobilized IL-23R-Fc. IL-23 that bound to IL-23R-Fc was detected using biotinylated anti-p40 antibody (1:250). The bound anti-p40 antibody was detected using streptavidin-horseradish peroxidase (HRP) (1:500) and 100 μl/well of a tetramethylbenzidine (TMB) substrate was added to measure peroxidase activity. The color was measured at optical density (OD) 450nm. (See, FIG. 12). The color intensity was directly proportional to the amount of the bound IL-23 protein.
as §3, with “Recombinant” for “FIG. 12 is a schematic depiction of the Competitive ELISA. Recombinant”, “IL-23R-Fc. 50 μg human IL-23 (Cat. No. HZ-1048) (Humanzyme, Chicago, Ill.) in the presence or absence of 100 μM peptides was added to the well and incubated at 4° C. overnight.” for “IL-23R-Fc.”, “450nm.” for “450nm. (See, FIG. 12).”

[5] = Solubility of synthetic polypeptides (precipitate in assay); type: physicochemical; conditions: under Competitive ELISA conditions
[6] = target: T2, IL-23R pathway in STAT3-Luc reporter DB cells; test: Cell-based STAT3-Luc reporter DB cell assay (DB-Luc), inhibition of IL-23; conditions: cyclic vs linear peptides
Procedure: (§4) The Cignal STAT3 reporter (SA Biosciences, CCS-9028L), designed to measure the transcriptional activity of STAT3 homodimers, was transiently transfected into the DB cells. The stably transfected STAT3-Luc reporter clone was selected using 200 ng/ml of Hygromycin B.
The stably transfected STAT3-Luc reporter DB cells (0.5×10^6) were cultured in 100 μl of RPMI+10% FBS. IL-23 was added to the cells and incubated at 37° C. for 4 hours. Luciferase activity was measured using Dual-Glo luciferase assay system (Promega).
The isolated cyclic polypeptide no. 23.15-Fc fusion protein and cyclic polypeptide no. 23.19 were used in a cell-based assay to measure the IC50 values. The stably transfected STAT3-Luc reporter DB cells (0.5×10^6) were cultured in 100 μl of RPMI+10% FBS. The cells were pre-incubated with different concentration of isolated cyclic polypeptide no. 23.15-Fc fusion protein or polypeptide no. 23.19 for 30 minutes at 37° C. 50 ng/ml of IL-23 was added to the cells and incubated at 37° C. for an additional 4 hours. Luciferase activity was measured using Dual-Glo luciferase assay system (Promega). The IC50 values of isolated cyclic polypeptide no. 23.15-Fc fusion protein and cyclic polypeptide no. 23.19 are 2.5 μM and 2.5 μM respectively.
The isolated peptide no. 7 (SEQ ID NO: 156) and peptide no. 23.19 (SEQ ID NO: 130) (it is a cyclic version of the polypeptide no. 23.15) were used in a cell based assay to compare their inhibitory activity. The stably transfected STAT3-Luc reporter DB cells (0.5×10^6) were cultured in 100 μl of RPMI+10% FBS. The cells were pre-incubated with two different concentrations (10 μM and 2 μM) of isolated peptides for 30 minutes at 37° C. 50 ng/ml of IL-23 was added to the cells and incubated at 37° C. for an additional 4 hours. Luciferase activity was measured using Dual-Glo luciferase assay system (Promega). The inhibitory activity of isolated peptide no. 7 (SEQ ID NO: 156) is better than that of peptide no. 23.19 (SEQ ID NO: 130) (a cyclic version of polypeptide no. 23.15 (SEQ ID NO: 126) (See, FIG. 62).
DB cells express IL-23R on the cell surface. In addition, IL-23 stimulated the DB cells through the activation of STAT3 by phosphorylation (p-STAT3) (Example 7 (Figures. 14 and 15)). Based on these observations, DB cells were used to develop a cell-based assay to measure the inhibitory activity of peptide and peptide-Fc fusion protein in the IL-23R pathway. […]
as §4, with “CCS-9028L), which is” for “CCS-9028L),”, “B. The activity of IL-23R pathway can be measured by the transcriptional activity of STAT3 homodimers. […]” for “B.”

- solubility [5]: formed a precipitate
Molecule: SGASWVQFWVQR [1.17]

- solubility [5]: insoluble
Molecule: SGASWVQYWWWR [1.21]

- inhibition of IL-23 binding to its receptor by modified polypeptides, Competitive ELISA [4]: at least as effective
Molecule: CSCC[C@H](NC(=O)[C@H](C)N)C(=O)N[C@H](C(=O)N[C@@H](Cc1c[nH]c2ccccc12)C(=O)N[C@@H](CCC(N)=O)C(=O)N[C@@H](CC(=O)O)C(=O)N[C@@H](Cc1ccc(O)cc1)C(=O)N[C@@H](Cc1c[nH]c2ccccc12)C(=O)N[C@@H](CC(C)C)C(=O)N[C@@H](Cc1ccc(O)cc1)C(=O)NCC(=O)N[C@@H](CCCNC(=N)N)C(=O)O)[C@@H](C)O [23.15]

- solubility [5]: insoluble
Molecule: SGWWWVQYWVQR [1.20]

- solubility [5]: formed a precipitate
Molecule: ASWVQYWVQ [1.4]

- solubility [5]: insoluble
Molecule: SGAWWVQYWVQR [1.18]

The next lines start with the molecule.

Molecule: IL-23: heterodimeric cytokine of p19 and p40 subunits; recombinant from Humanzyme
- binding to IL-23R deletion protein 1-200 (IL-23R deletion proteins [1]): failed to bind
- binding to IL-23R deletion proteins 1-348, 1-318 or 1-250 (IL-23R deletion proteins [2]): detected in the precipitate
- increase of reporter luciferase activity ([3]; 50 ng/ml): approximately 10 folds

Molecule: 7 CC (CMKTWVDYWLETQC; disulfide 1-14 (inferred); listed as Homo sapiens)
- inhibition of IL-23 binding to its receptor by modified polypeptides, Competitive ELISA [4]: did not abrogate the polypeptides' ability

Molecule: SGASWVQYWVQR [Polypeptide no. 1]
- IC50 [4]: 6.25 to 12.5 µM

Molecule: NWATYWQLRHQT [compound 9]
- inhibitory activity in Competitive ELISA in relation to polypeptide no. 1 ([4]; 50 μM polypeptide, 30 ng/ml IL-23): significant and better inhibitory activity compared to peptide number 1; also recorded: inhibited IL-23 binding more than polypeptide no. 1
- IC50 [4]: ~3 µM

Molecule: WT: IL-23 cytokine with wild type p19 subunit, expressed in 293T cells
- stimulation of STAT3 reporter activity ([3]; 50,000, 5,000, 500 and 50 ng/ml): stimulates the STAT3 activity in a dose-dependent manner

Molecule: DDWMQYWRQQVR [compound 27]
- IC50 [4]: ~1.56 µM

Molecule: 7HT AA (AMKTWVDYWLETQA; head-to-tail cyclic; listed as Homo sapiens)
- inhibition of IL-23 binding to its receptor by modified polypeptides, Competitive ELISA [4]: did not abrogate the polypeptides' ability
- inhibitory activity in cell-based DB-Luc assay [6]: did not eliminate the inhibitory activity

Molecule: AMTWEDWWLYGR [compound 23]
- IC50 [4]: < 1.56 µM

From US9605027B2, “Polypeptides that bound to IL-23 receptor and inhibit binding of IL-23 and cell signaling thereof” (Medical Diagnostic Laboratories, LLC, priority 2011, dated 2017)
